Assay results: PubChem BioAssay AID248 (DTP/NCI, 2004)
Where “and” joins values, the source holds several entries; their conditions need not be identical. Identical values can stand only once. Toxic doses and inconclusive results are not listed. Rule as the data show it: active = T/C of 150% or more; inactive = T/C below 125%.

Tested on: L1210 leukemia ip in BDF1 mice, survival T/C
Experiment: NCI In Vivo Anticancer Drug Screen. Data for tumor model L1210 Leukemia (intraperitoneal) in B6D2F1 (BDF1) mice
Details: endpoint: mean survival time, higher = longer survival
Method in brief: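 Value reflects the ratio of survival in compound-treated mice to survival in vehicle-treated controls, with both groups carrying the same transplanted tumor.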

[1] = dose: 12.5 mg/kg/injection, schedule: Q04DX003 (ip), vehicle: Klucel (hydroxypropylcellulose) (HPC)
[2] = dose: 25.0 mg/kg/injection, schedule: Q04DX003 (ip), vehicle: Klucel (hydroxypropylcellulose) (HPC)
[3] = dose: 50.0 mg/kg/injection, schedule: Q04DX003 (ip), vehicle: Klucel (hydroxypropylcellulose) (HPC)
[4] = dose: 25.0 mg/kg/injection, schedule: Q01DX009 (ip), vehicle: saline with Tween-80
[5] = dose: 50.0 mg/kg/injection, schedule: Q01DX009 (ip), vehicle: saline with Tween-80
[6] = dose: 100.0 mg/kg/injection, schedule: Q01DX009 (ip), vehicle: saline with Tween-80
[7] = dose: 100.0 mg/kg/injection, schedule: Q04DX003 (ip), vehicle: saline with Tween-80
[8] = dose: 200.0 mg/kg/injection, schedule: Q01DX009 (ip), vehicle: saline with Tween-80
[9] = dose: 200.0 mg/kg/injection, schedule: Q04DX003 (ip), vehicle: saline with Tween-80
[10] = dose: 400.0 mg/kg/injection, schedule: Q04DX003 (ip), vehicle: saline with Tween-80
[11] = dose: 100.0 mg/kg/injection, schedule: Q04DX002 (ip), vehicle: Klucel (hydroxypropylcellulose) (HPC)
[12] = dose: 200.0 mg/kg/injection, schedule: Q04DX002 (ip), vehicle: Klucel (hydroxypropylcellulose) (HPC)
[13] = dose: 400.0 mg/kg/injection, schedule: Q04DX002 (ip), vehicle: Klucel (hydroxypropylcellulose) (HPC)
[14] = dose: 100.0 mg/kg/injection, schedule: Q01DX009 (ip), vehicle: Klucel (hydroxypropylcellulose) (HPC)
[15] = dose: 200.0 mg/kg/injection, schedule: Q01DX009 (ip), vehicle: Klucel (hydroxypropylcellulose) (HPC)
[16] = dose: 400.0 mg/kg/injection, schedule: Q01DX009 (ip), vehicle: Klucel (hydroxypropylcellulose) (HPC)
[17] = dose: 100.0 mg/kg/injection, schedule: Q01DX001 (ip), vehicle: saline
[18] = dose: 200.0 mg/kg/injection, schedule: Q01DX001 (ip), vehicle: saline
[19] = dose: 400.0 mg/kg/injection, schedule: Q01DX001 (ip), vehicle: saline
[20] = dose: 25.0 mg/kg/injection, schedule: Q04DX003 (ip), vehicle: saline with Tween-80
[21] = dose: 50.0 mg/kg/injection, schedule: Q04DX003 (ip), vehicle: saline with Tween-80
[22] = dose: 100.0 mg/kg/injection, schedule: Q01DX001 (ip), vehicle: Klucel (hydroxypropylcellulose) (HPC)
[23] = dose: 200.0 mg/kg/injection, schedule: Q01DX001 (ip), vehicle: Klucel (hydroxypropylcellulose) (HPC)

Measured: T/C

COC(=O)C(OC(=O)n1ccnc1)(c1ccccc1)c1ccccc1
inactive: dose: 100.0 mg/kg/injection, schedule: Q04DX002 (ip), vehicle: gum acacia 112 % of control | dose: 200.0 mg/kg/injection, schedule: Q04DX002 (ip), vehicle: gum acacia 94 % of control | dose: 400.0 mg/kg/injection, schedule: Q04DX002 (ip), vehicle: gum acacia 97 % of control

[N-]=[N+]=Nc1c2ccccc2nc2ccccc12
inactive: dose: 2.0 mg/kg/injection, schedule: Q01DX001 (ip), vehicle: saline 92 % of control | dose: 4.0 mg/kg/injection, schedule: Q01DX001 (ip), vehicle: saline 94 % of control | dose: 8.0 mg/kg/injection, schedule: Q01DX001 (ip), vehicle: saline 103 % of control

c1ccc(COCCNCCOCc2ccccc2)cc1
inactive: dose: 12.5 mg/kg/injection, schedule: Q01DX009 (ip), vehicle: Klucel (hydroxypropylcellulose) (HPC) 100 % of control | [1] 107 % of control | dose: 25.0 mg/kg/injection, schedule: Q01DX009 (ip), vehicle: Klucel (hydroxypropylcellulose) (HPC) 96 % of control | [2] 94 % of control | dose: 50.0 mg/kg/injection, schedule: Q01DX009 (ip), vehicle: Klucel (hydroxypropylcellulose) (HPC) 95 % of control | [3] 95 % of control

CNC(=O)NNC(=O)CNC(=O)Nc1cccc([N+](=O)[O-])c1
inactive: [4] 91 % of control | [5] 94 % of control

Cc1c(C)c(CO)c(C)c(C)c1CO
inactive: [1] 94 % of control | [2] 92 % of control | [3] 97 % of control

NNS(=O)(=O)CCCCCCCCCCC(=O)O
inactive: [5] 99 % of control | [6] 96 % of control | [7] 92 % of control | [8] 91 % of control | [9] 90 % of control

O=C(O)/C=C\C(=O)Nc1ccccc1C(=O)O
inactive: [7] 98 % of control | [9] 97 % of control | [10] 111 % of control

CCCCCCCCCCCCCCCCCC(=O)OCC(COC(=O)CCCCCCCC(CO)CCCCCCCCC)OC(=O)CCCCCCCC(CO)CCCCCCCCC (centres undefined)
inactive: [11] 101 % of control | [12] 101 % of control | [13] 101 % of control

C/C(=N\NC(=O)CCCCC(=O)N/N=C(\C)c1ccc(C)cc1)c1ccc(C)cc1
inactive: [14] 88 % of control | [15] 90 % of control | [16] 91 % of control

C=CC1(C)CCC2C(=CCC3C2(C)CC(O)C(O)C3(C)COC2OC(CO)C(O)C(O)C2O)C1 (centres undefined)
inactive: dose: 75.0 mg/kg/injection, schedule: Q01DX001 (ip), vehicle: saline 96 % of control

C[CH2][Pb]([CH2]C)([CH2]C)[S]c1ccc(Cl)cc1
inactive: dose: 25.0 mg/kg/injection, schedule: Q04DX002 (sc), vehicle: olive oil, sesame oil, peanut oil 110 % of control | dose: 50.0 mg/kg/injection, schedule: Q04DX002 (sc), vehicle: olive oil, sesame oil, peanut oil 87 % of control

NC(Cc1ccc(O)c(O)c1)C(=O)O (centres undefined)
inactive: [17] 93 % of control | [18] 95 % of control | [19] 97 % of control

CC(NCl)c1ccccc1 (centres undefined)
inactive: [17] 95 % of control | [18] 100 % of control | [19] 100 % of control

c1ccc2c(c1)Nc1cc3ccccc3cc1O2
inactive: dose: 50.0 mg/kg/injection, schedule: Q01DX001 (ip), vehicle: carboxymethylcellulose (CMC) 101 % of control | dose: 100.0 mg/kg/injection, schedule: Q01DX001 (ip), vehicle: carboxymethylcellulose (CMC) 92 % of control | dose: 200.0 mg/kg/injection, schedule: Q01DX001 (ip), vehicle: carboxymethylcellulose (CMC) 97 % of control | dose: 400.0 mg/kg/injection, schedule: Q01DX001 (ip), vehicle: carboxymethylcellulose (CMC) 90 % of control

Cc1cc(C)c(NC(=O)c2cccc([N+](=O)[O-])c2C(=O)O)cc1C
inactive: [11] 105 % of control | [12] 96 % of control | [13] 108 % of control

CCCCCCCC(=O)Nc1ccccc1CC
inactive: [7] 93 % of control | [9] 95 % of control | [10] 86 % of control

O=C(C(Br)c1ccccc1)C(Br)c1ccccc1 (centres undefined)
inactive: dose: 6.25 mg/kg/injection, schedule: Q01DX009 (ip), vehicle: saline with Tween-80 104 % of control | dose: 12.5 mg/kg/injection, schedule: Q01DX009 (ip), vehicle: saline with Tween-80 98 % of control and 107 % of control | dose: 12.5 mg/kg/injection, schedule: Q04DX003 (ip), vehicle: saline with Tween-80 96 % of control | [4] 100 % of control and 110 % of control | [20] 90 % of control | [5] 102 % of control | [21] 101 % of control

CCCCOC(=O)/C=C/C(=O)OCCCC
inactive: [6] 97 % of control | [8] 101 % of control | dose: 400.0 mg/kg/injection, schedule: Q01DX009 (ip), vehicle: saline with Tween-80 111 % of control

c1cc2c(cc1C1SCSCS1)OCO2
inactive: [14] 98 % of control | dose: 100.0 mg/kg/injection, schedule: Q04DX003 (ip), vehicle: Klucel (hydroxypropylcellulose) (HPC) 96 % of control | [15] 92 % of control | dose: 200.0 mg/kg/injection, schedule: Q04DX003 (ip), vehicle: Klucel (hydroxypropylcellulose) (HPC) 98 % of control | [16] 90 % of control | dose: 400.0 mg/kg/injection, schedule: Q04DX003 (ip), vehicle: Klucel (hydroxypropylcellulose) (HPC) 98 % of control

CN(Cc1ccccc1)C(=O)COc1ccc(Cl)c(Cl)c1
inactive: [22] 106 % of control | [23] 96 % of control | dose: 400.0 mg/kg/injection, schedule: Q01DX001 (ip), vehicle: Klucel (hydroxypropylcellulose) (HPC) 102 % of control

C/C(=N/N(C)C)c1ccc(Cl)cc1
inactive: dose: 12.5 mg/kg/injection, schedule: Q01DX009 (ip), vehicle: saline 105 % of control | dose: 25.0 mg/kg/injection, schedule: Q01DX009 (ip), vehicle: saline 112 % of control | dose: 50.0 mg/kg/injection, schedule: Q01DX009 (ip), vehicle: saline 111 % of control | dose: 100.0 mg/kg/injection, schedule: Q04DX003 (ip), vehicle: saline 101 % of control

COc1cc2ccnc(C=O)c2cc1OC
inactive: dose: 50.0 mg/kg/injection, schedule: Q01DX001 (ip), vehicle: saline 96 % of control | [17] 95 % of control | [18] 101 % of control

N#C/C(=C\c1cc(Br)cc(Br)c1O)c1ccc([N+](=O)[O-])cc1
inactive: [7] 97 % of control | [9] 87 % of control | [10] 102 % of control

O=[N+]([O-])/C=C/c1cccs1
inactive: [22] 98 % of control | [23] 103 % of control

Cc1cc(Cl)c(Cl)cc1NC(=O)C(Br)C(Br)C(=O)O (centres undefined)
inactive: [6] 97 % of control | [8] 96 % of control

CC(=O)Nc1ccc(SC(=O)N(C)C)cc1
inactive: dose: 12.5 mg/kg/injection, schedule: Q01DX009 (ip), vehicle: saline + alcohol 90 % of control | dose: 25.0 mg/kg/injection, schedule: Q01DX009 (ip), vehicle: saline + alcohol 95 % of control | [20] 98 % of control | dose: 50.0 mg/kg/injection, schedule: Q01DX009 (ip), vehicle: saline + alcohol 101 % of control | [21] 104 % of control | [7] 103 % of control

CN(C)C=NC1CCC(CC2CCCCC2)CC1 (centres undefined)
inactive: dose: 75.0 mg/kg/injection, schedule: Q04DX003 (ip), vehicle: Klucel (hydroxypropylcellulose) (HPC) 92 % of control | [22] 96 % of control | dose: 150.0 mg/kg/injection, schedule: Q04DX003 (ip), vehicle: Klucel (hydroxypropylcellulose) (HPC) 100 % of control | [23] 95 % of control | dose: 300.0 mg/kg/injection, schedule: Q04DX003 (ip), vehicle: Klucel (hydroxypropylcellulose) (HPC) 97 % of control
